Measurements from the CheMixHub viscosity set.

Experiment: xn = mol fraction of the nth substance listed

CN1CCCC1=O + O
Details | viscosity [mPa·s]
293.15 K, 101 kPa, x1 = 0.6997 | 2.865
298.15 K, 101 kPa, x1 = 0.02 | 1.2
298.15 K, 101 kPa, x1 = 0.0505 | 1.809
298.15 K, 101 kPa, x1 = 0.0985 | 2.79
298.15 K, 101 kPa, x1 = 0.0997 | 2.778
298.15 K, 101 kPa, x1 = 0.1202 | 3.198
298.15 K, 101 kPa, x1 = 0.1503 | 3.914
298.15 K, 101 kPa, x1 = 0.1702 | 4.125
298.15 K, 101 kPa, x1 = 0.1881 | 4.44
298.15 K, 101 kPa, x1 = 0.1999 | 4.578
298.15 K, 101 kPa, x1 = 0.2205 | 4.804
298.15 K, 101 kPa, x1 = 0.2496 | 5.035
298.15 K, 101 kPa, x1 = 0.2697 | 5.12
298.15 K, 101 kPa, x1 = 0.2937 | 5.154
298.15 K, 101 kPa, x1 = 0.3053 | 5.1
298.15 K, 101 kPa, x1 = 0.3496 | 5.006
298.15 K, 101 kPa, x1 = 0.3959 | 4.59
298.15 K, 101 kPa, x1 = 0.3999 | 4.679
298.15 K, 101 kPa, x1 = 0.45 | 4.31
298.15 K, 101 kPa, x1 = 0.4954 | 3.77
298.15 K, 101 kPa, x1 = 0.4999 | 3.909
298.15 K, 101 kPa, x1 = 0.5941 | 3.07
298.15 K, 101 kPa, x1 = 0.6002 | 3.214
298.15 K, 101 kPa, x1 = 0.6917 | 2.55
298.15 K, 101 kPa, x1 = 0.7 | 2.676
298.15 K, 101 kPa, x1 = 0.786 | 2.18
298.15 K, 101 kPa, x1 = 0.7997 | 2.299
298.15 K, 101 kPa, x1 = 0.8859 | 1.9
298.15 K, 101 kPa, x1 = 0.8962 | 2.023
298.15 K, 101 kPa, x1 = 0.9498 | 1.908
298.15 K, 101.15 kPa, x1 = 0.0501 | 1.74
298.15 K, 101.15 kPa, x1 = 0.0701 | 2.137
298.15 K, 101.15 kPa, x1 = 0.1001 | 2.762
298.15 K, 101.15 kPa, x1 = 0.2004 | 4.555
298.15 K, 101.15 kPa, x1 = 0.3004 | 5.062
298.15 K, 101.15 kPa, x1 = 0.4012 | 4.505
298.15 K, 101.15 kPa, x1 = 0.503 | 3.729
298.15 K, 101.15 kPa, x1 = 0.5937 | 3.075
298.15 K, 101.15 kPa, x1 = 0.7023 | 2.503
298.15 K, 101.15 kPa, x1 = 0.9006 | 1.836
298.16 K, 101 kPa, x2 = 0.0836 | 1.84
298.16 K, 101 kPa, x2 = 0.1794 | 2.14
298.16 K, 101 kPa, x2 = 0.3006 | 2.72
298.16 K, 101 kPa, x2 = 0.4221 | 3.52
298.16 K, 101 kPa, x2 = 0.5466 | 4.45
298.16 K, 101 kPa, x2 = 0.6595 | 5.05
298.16 K, 101 kPa, x2 = 0.6861 | 5.04
298.16 K, 101 kPa, x2 = 0.7608 | 4.66
298.16 K, 101 kPa, x2 = 0.7976 | 4.23
298.16 K, 101 kPa, x2 = 0.8599 | 3.2
303.15 K, 101 kPa, x1 = 0.3001 | 4.365
303.15 K, 101 kPa, x1 = 0.899 | 1.705
308.15 K, 101 kPa, x1 = 0.02 | 0.9403
308.15 K, 101 kPa, x1 = 0.0505 | 1.375
308.15 K, 101 kPa, x1 = 0.1202 | 2.303
308.15 K, 101 kPa, x1 = 0.1702 | 2.895
308.15 K, 101 kPa, x1 = 0.1999 | 3.179
308.15 K, 101 kPa, x1 = 0.2205 | 3.323
308.15 K, 101 kPa, x1 = 0.2496 | 3.478
308.15 K, 101 kPa, x1 = 0.2697 | 3.539
308.15 K, 101 kPa, x1 = 0.2937 | 3.574
308.15 K, 101 kPa, x1 = 0.3202 | 3.591
308.15 K, 101 kPa, x1 = 0.3496 | 3.518
308.15 K, 101 kPa, x1 = 0.3999 | 3.351
308.15 K, 101 kPa, x1 = 0.45 | 3.147
308.15 K, 101 kPa, x1 = 0.4999 | 2.912
308.15 K, 101 kPa, x1 = 0.6002 | 2.487
308.15 K, 101 kPa, x1 = 0.7 | 2.138
308.15 K, 101 kPa, x1 = 0.7997 | 1.883
308.15 K, 101 kPa, x1 = 0.8962 | 1.691
313.15 K, 101.15 kPa, x1 = 0.0501 | 1.178
313.15 K, 101.15 kPa, x1 = 0.0701 | 1.402
313.15 K, 101.15 kPa, x1 = 0.1001 | 1.744
313.15 K, 101.15 kPa, x1 = 0.2004 | 2.684
313.15 K, 101.15 kPa, x1 = 0.3004 | 2.975
313.15 K, 101.15 kPa, x1 = 0.4012 | 2.777
313.15 K, 101.15 kPa, x1 = 0.503 | 2.44
313.15 K, 101.15 kPa, x1 = 0.5937 | 2.125
313.15 K, 101.15 kPa, x1 = 0.7023 | 1.818
313.15 K, 101.15 kPa, x1 = 0.8066 | 1.585
313.15 K, 101.15 kPa, x1 = 0.9006 | 1.43
318.15 K, 101 kPa, x1 = 0.0997 | 1.548
318.15 K, 101 kPa, x1 = 0.1202 | 1.73
318.15 K, 101 kPa, x1 = 0.1503 | 2.039
318.15 K, 101 kPa, x1 = 0.1702 | 2.13
318.15 K, 101 kPa, x1 = 0.1999 | 2.32
318.15 K, 101 kPa, x1 = 0.2205 | 2.417
318.15 K, 101 kPa, x1 = 0.2496 | 2.527
318.15 K, 101 kPa, x1 = 0.2697 | 2.572
318.15 K, 101 kPa, x1 = 0.2937 | 2.603
318.15 K, 101 kPa, x1 = 0.3202 | 2.623
318.15 K, 101 kPa, x1 = 0.3496 | 2.589
318.15 K, 101 kPa, x1 = 0.3999 | 2.503
318.15 K, 101 kPa, x1 = 0.45 | 2.387
318.15 K, 101 kPa, x1 = 0.4999 | 2.245
318.15 K, 101 kPa, x1 = 0.6002 | 1.977
318.15 K, 101 kPa, x1 = 0.7997 | 1.571
318.15 K, 101 kPa, x1 = 0.9498 | 1.375
323.15 K, 101 kPa, x1 = 0.6997 | 1.485
323.15 K, 101.15 kPa, x1 = 0.0501 | 0.942
323.15 K, 101.15 kPa, x1 = 0.0701 | 1.106
323.15 K, 101.15 kPa, x1 = 0.2004 | 1.995
323.15 K, 101.15 kPa, x1 = 0.4012 | 2.116
323.15 K, 101.15 kPa, x1 = 0.503 | 1.935
323.15 K, 101.15 kPa, x1 = 0.7023 | 1.509
323.15 K, 101.15 kPa, x1 = 0.8066 | 1.343
